The source of these data is ChEMBL document CHEMBL1921749, “5-Lipoxygenase-activating protein (FLAP) inhibitors. Part 4: development of 3-[3-tert-butylsulfanyl-1-[4-(6-ethoxypyridin-3-yl)benzyl]-5-(5-methylpyridin-2-ylmethoxy)-1H-indol-2-yl]-2,2-dimethylpropionic acid (AM803), a potent, oral, once daily FLAP inhibitor” (J Med Chem, 2011).

In series [1] the target is T1, Arachidonate 5-lipoxygenase-activating protein (Rattus norvegicus, UniProt P20291).
T1 sequence (P20291 whole entry): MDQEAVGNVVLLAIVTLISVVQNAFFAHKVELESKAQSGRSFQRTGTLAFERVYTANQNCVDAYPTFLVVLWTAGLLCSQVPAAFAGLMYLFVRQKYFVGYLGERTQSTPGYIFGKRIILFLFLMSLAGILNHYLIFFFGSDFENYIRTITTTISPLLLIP
Nature of the series: Inhibition of FLAP in rat whole blood assessed as inhibition of calcium ionophore A23187-induced LTB4 production preincubated for 15 mins by ELISA. Type of series: tissue-based. On the technique in general: An ELISA detects its analyte on a solid surface through an enzyme-linked reagent.

Series [2] has as its target T1, Arachidonate 5-lipoxygenase-activating protein. Nature of the series: Inhibition of FLAP in rat whole blood assessed as inhibition of calcium ionophore A23187-induced LTB4 production preincubated for 4 hrs by ELISA. The series is classed as tissue-based.
The target of series [3] is T2, Arachidonate 5-lipoxygenase-activating protein (Homo sapiens, UniProt P20292).
T2 sequence (P20292 whole entry): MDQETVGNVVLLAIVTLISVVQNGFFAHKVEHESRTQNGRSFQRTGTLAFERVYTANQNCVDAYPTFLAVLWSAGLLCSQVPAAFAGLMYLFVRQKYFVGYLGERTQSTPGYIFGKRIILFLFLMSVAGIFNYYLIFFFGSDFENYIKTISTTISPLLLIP
The series can be described thus: Inhibition of FLAP in human peripheral leukocytes assessed as inhibition of calcium ionophore A23187-induced LTB4 production after 10 mins by ELISA. Type of series: cell-based.

The target of series [4] is Prostaglandin G/H synthase 1 (Homo sapiens, UniProt P23219). The series can be described thus: Inhibition of COX1-mediated TXB2 production in human whole blood after 30 mins by competitive enzyme immunoassay.
Chain of Prostaglandin G/H synthase 1 (P23219 whole entry): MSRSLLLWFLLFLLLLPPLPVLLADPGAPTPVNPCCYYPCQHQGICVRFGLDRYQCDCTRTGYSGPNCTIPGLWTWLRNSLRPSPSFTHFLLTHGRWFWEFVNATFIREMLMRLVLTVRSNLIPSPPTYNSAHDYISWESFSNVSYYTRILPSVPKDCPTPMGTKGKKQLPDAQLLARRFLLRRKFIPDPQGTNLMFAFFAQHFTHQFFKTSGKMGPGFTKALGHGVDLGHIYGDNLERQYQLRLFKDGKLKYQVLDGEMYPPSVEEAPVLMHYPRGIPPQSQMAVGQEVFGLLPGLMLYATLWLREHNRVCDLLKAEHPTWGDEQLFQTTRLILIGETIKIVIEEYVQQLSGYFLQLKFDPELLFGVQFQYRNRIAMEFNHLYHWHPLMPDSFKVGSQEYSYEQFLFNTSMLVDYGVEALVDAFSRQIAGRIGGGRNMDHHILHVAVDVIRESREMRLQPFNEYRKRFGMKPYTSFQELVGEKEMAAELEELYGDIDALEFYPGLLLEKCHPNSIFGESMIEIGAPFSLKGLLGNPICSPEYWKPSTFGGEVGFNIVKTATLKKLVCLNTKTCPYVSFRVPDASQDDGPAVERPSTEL
Series [5] concerns the target T2, Arachidonate 5-lipoxygenase-activating protein. The series can be described thus: Inhibition of FLAP in human peripheral leukocytes assessed as inhibition of calcium ionophore A23187-induced LTB4 production after 5 mins by ELISA in absence of human serum albumin. Type of series: cell-based.
Series [6] has the same target. Nature of the series: Inhibition of FLAP in human peripheral leukocytes assessed as inhibition of calcium ionophore A23187-induced LTB4 production after 1 hr by ELISA in absence of human serum albumin. The series is classed as cell-based.
A short description of series [7]: Volume of distribution in Beagle dog at 2 mg/kg, iv. Type of series: ADME, organism-based, Canis lupus familiaris. Also noted: dose 2 mg/kg, route intravenous. Conditions: in vivo; call rule not given here.
A short description of series [8]: Plasma concentration in rat at 3 mg/kg, po after 4 hrs. Type of series: ADME, organism-based. Also on record: dose 3 mg/kg, route oral.
The test system of a further series is Rattus norvegicus. Nature of the series: Antiinflammatory activity in rat assessed as inhibition of calcium ionophore A23187-induced CysLT production in bronchoalveolar lavage fluid at 3 mg/kg, po administered 16 hrs prior to A23187 challenge. Type of series: functional, Lung. Also noted: scale not given: the % may be the effect or the level left.
Series [9] in a line: Plasma concentration in rat at 3 mg/kg, po after 16 hrs. Type of series: ADME, organism-based. Also on record: dose 3 mg/kg, route oral.
A further series concerns the target T3, Leukotriene C4 synthase (Homo sapiens, UniProt Q16873).
T3 sequence (Q16873 whole entry): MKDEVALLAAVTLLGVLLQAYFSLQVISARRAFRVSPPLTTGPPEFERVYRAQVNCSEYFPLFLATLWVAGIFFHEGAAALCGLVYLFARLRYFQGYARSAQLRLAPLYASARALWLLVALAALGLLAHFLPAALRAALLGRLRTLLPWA
Nature of the series: Inhibition of LTC4 synthase.

A further series addresses Cytochrome P450 2C19 (Homo sapiens, UniProt P33261). Nature of the series: Inhibition of human CYP2C19. Type of series: ADME.
In another series the target is T4, Cytochrome P450 1A2 (Homo sapiens, UniProt P05177).
T4 sequence (P05177 whole entry): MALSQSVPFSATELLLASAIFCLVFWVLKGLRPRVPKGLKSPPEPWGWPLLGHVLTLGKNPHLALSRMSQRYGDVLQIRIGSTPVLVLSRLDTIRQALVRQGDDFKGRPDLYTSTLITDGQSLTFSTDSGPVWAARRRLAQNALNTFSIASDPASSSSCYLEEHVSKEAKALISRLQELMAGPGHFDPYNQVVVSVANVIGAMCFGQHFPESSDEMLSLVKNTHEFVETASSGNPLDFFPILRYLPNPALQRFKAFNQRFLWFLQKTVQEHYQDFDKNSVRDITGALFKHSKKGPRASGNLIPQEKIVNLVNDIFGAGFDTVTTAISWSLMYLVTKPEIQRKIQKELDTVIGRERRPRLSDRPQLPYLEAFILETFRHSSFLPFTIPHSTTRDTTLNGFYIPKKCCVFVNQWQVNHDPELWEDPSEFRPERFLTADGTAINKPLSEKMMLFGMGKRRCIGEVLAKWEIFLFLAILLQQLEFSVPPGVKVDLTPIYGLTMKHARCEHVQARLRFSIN
The series can be described thus: Inhibition of human CYP1A2. Type of series: ADME.

A further series concerns the target Cytochrome P450 3A4 (Homo sapiens, UniProt P08684). The series can be described thus: Time-dependent inhibition of CYP3A4 at 10 uM. Type of series: ADME.

Chain of Cytochrome P450 2C19 (P33261 whole entry): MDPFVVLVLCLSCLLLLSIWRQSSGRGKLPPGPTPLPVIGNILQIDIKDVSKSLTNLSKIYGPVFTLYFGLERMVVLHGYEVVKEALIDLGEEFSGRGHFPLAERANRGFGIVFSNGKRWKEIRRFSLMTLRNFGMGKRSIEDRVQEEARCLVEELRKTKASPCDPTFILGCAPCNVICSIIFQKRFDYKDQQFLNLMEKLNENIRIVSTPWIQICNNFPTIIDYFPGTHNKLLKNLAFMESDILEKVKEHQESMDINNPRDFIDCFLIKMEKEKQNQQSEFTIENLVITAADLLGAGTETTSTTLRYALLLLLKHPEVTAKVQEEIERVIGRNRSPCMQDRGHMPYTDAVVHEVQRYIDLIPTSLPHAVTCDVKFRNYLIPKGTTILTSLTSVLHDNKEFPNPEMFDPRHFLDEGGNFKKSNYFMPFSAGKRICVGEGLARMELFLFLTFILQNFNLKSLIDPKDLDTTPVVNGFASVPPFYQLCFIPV
Chain of Cytochrome P450 3A4 (P08684 whole entry): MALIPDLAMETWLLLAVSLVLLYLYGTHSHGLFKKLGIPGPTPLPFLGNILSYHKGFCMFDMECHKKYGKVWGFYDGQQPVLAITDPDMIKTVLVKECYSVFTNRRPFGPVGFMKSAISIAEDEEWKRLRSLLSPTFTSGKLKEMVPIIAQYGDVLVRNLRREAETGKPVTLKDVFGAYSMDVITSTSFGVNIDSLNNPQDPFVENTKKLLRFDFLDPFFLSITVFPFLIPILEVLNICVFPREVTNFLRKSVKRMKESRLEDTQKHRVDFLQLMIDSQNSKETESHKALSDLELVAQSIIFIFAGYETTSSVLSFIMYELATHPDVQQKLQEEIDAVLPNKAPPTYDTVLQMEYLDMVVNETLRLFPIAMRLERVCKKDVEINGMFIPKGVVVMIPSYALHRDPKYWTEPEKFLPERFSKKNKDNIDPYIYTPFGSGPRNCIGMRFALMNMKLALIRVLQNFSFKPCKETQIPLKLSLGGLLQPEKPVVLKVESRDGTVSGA

Turning to `CCOc1ccc(-c2ccc(Cn3c(CC(C)(C)C(=O)O)c(SC(C)(C)C)c4cc(OCc5ccc(C)cn5)ccc43)cc2)cn1` [FIBOFLAPON], the IC50 – broadly, the concentration that gives 50% inhibition – is 239 nM in series [1]; 16 nM in series [2]; 0.7 nM in [3]; 58000 nM in series [4]; 1 nM in series [5]; 1 nM in series [6]. Moreover, the IC50 at Leukotriene C4 synthase was 36000 nM; at Cytochrome P450 2C19 it was over 40000 nM; against Cytochrome P450 1A2 it was over 40000 nM. Also, the Vd (in general, the apparent volume that relates the amount in the body to the concentration in plasma or blood) in [7] came to 0.2 L/kg. For the same compound, in series [8], the concentration at 4 h was determined as 1000 nM. Also, the Activity with Rattus norvegicus was 41%. Besides, in series [9], the concentration at 16 h amounted to 3 nM. Also, the TDI result at Cytochrome P450 3A4 was “Not Active”.
